According to patent US8012945B2, “Phage antibodies to radiation-inducible neoantigens” (Vanderbilt University, priority 2001, dated 2011):

Tests used:
[1] = tested on: irradiated tumors (LLC and GL261); assay: In vivo screening of T7 phage peptide library, LLC and GL261 tumors pooled; set-up: species or system mice; conditions: for Frequency of Recovery: conserved motifs within peptides identified by in vivo screening
Protocol: GL261 murine glioma cells and Lewis lung carcinoma cells were implanted into the hind limb of C57BL6 mice (Hallahan et al., 1995b; Hallahan et al., 1998; Hallahan & Virudachalam, 1999).
For in vivo screening, tumors were irradiated with 3 Gy and approximately 10^10 phage (prepared as described in Example 4) were administered by tail vein injection into each of the tumor bearing mice at 4 hours following irradiation. Tumors were recovered at one hour following injection and amplified in BL21 bacteria. Amplified phage were pooled and re-administered to a tumor-bearing mouse following tumor irradiation. The phage pool was sequentially administered to a total of 6 animals. As a control, wild type phage lacking synthetic peptide inserts were identically administered to a second experimental group of animals.
To determine the titer of phage binding in a tumor or in normal tissue, recovered phage were amplified in BL21 bacteria. Bacteria were plated and the number of plaques present were counted. To determine the total phage output per organ, the number of plaque forming units (PFU) on each plate was divided by the volume of phage plated and the weight of each organ.
An individual phage suspension was used as template. Amplified peptides were sequenced using an ABI PRISM 377 sequencer (PE Biosystems, Foster City, Calif., United States of America).

LLC tumors = assay: In vivo screening of T7 phage peptide library, irradiated LLC tumors; set-up: species or system mice; conditions: 3 Gy, 6 rounds of in vivo screening; for Number of Phage Recovered from LLC tumors: randomly selected phage
Protocol: (§1) A population of DNA fragments encoding recombinant peptide sequences was cloned into the T7 […] vector (Novagen, Madison, Wis., United States of America). […] The resulting reading frame requires an AAT initial codon followed by a TCX codon. The molar ratio between insert and vector was 1:1. Size-fractionated cDNA inserts were prepared by gel filtration on sepharose 4B and ranged from 27 base pairs to 33 base pairs. cDNAs were ligated by use of the DNA ligation kit (Novagen, Madison, Wis., United States of America). Recombinant T7 DNA was packaged according to the manufacturer's instructions and amplified prior to bioscreening in animal tumor models. […] GL261 murine glioma cells and Lewis lung carcinoma cells were implanted into the hind limb of C57BL6 mice ([…] et al., 1995[…] et al., 1998; […], 1999). […] Tumors were recovered at one hour following injection and amplified in BL21 bacteria. Amplified phage were pooled and re-administered to a tumor-bearing mouse following tumor irradiation. The phage pool was sequentially administered to a total of 6 animals. […] To determine the titer of phage binding in a tumor or in normal tissue, recovered phage were amplified in BL21 bacteria. Bacteria were plated and the number of plaques present were counted. To determine the total phage output per organ, the number of plaque forming units (PFU) on each plate was divided by the volume of phage plated and the weight of each organ. […] Following 6 rounds of in vivo screening, fifty recombinant phage peptides that bound within irradiated tumors were randomly selected for further analysis. The nucleic acid sequence encoding recombinant phage was amplified by PCR using primers set forth as SEQ ID NOs: 14-15 (available from Novagen, Madison, Wis., United States of America). An individual phage suspension was used as template. Amplified peptides were sequenced using an ABI PRISM 377 sequencer (PE Biosystems, Foster City, Calif., United States of America).

GL261 tumors = assay: In vivo screening of T7 phage peptide library, irradiated GL261 tumors; set-up: species or system mice; conditions: 3 Gy, 6 rounds of in vivo screening; for Number of Phage Recovered from GL261 tumors: randomly selected phage
Protocol: as §1

[2] = tested on: melanoma, lung carcinoma, and glioma tumor models; assay: Binding of peptide-encoding phage in additional tumor models; type: in vivo, mice; conditions: B16F0 melanoma, Lewis lung carcinoma, GL261 glioma
Text: The binding properties of phage encoding […] (SEQ ID NO: 1), […] (SEQ ID NO: 2), […] (SEQ ID NO: 3), and NSVGSRV (SEQ ID NO: 4) were additionally characterized in a B16F0 melanoma model.

[3] = tested on: P-selectin and platelet membrane glycoprotein IIB; assay: Screening of phage-displayed scFv library on immobilized neoantigens, Western immunoblot, then in vivo screening of irradiated tumors; type: binding; conditions: recovered following in vivo screening to irradiated tumors
Protocol: A phage library comprising diverse single chain antibodies was prepared in M13 phage. Briefly, nucleotide sequences encoding antibody VL and VH regions separated by a (Gly4Ser)3 linker were fused to M13 gene III nucleotide sequences. When a recombinant M13 carrying these antibody-gene III fusions infects an appropriate host bacterium, the host produces recombinant M13 phage that display scFv antibody polypeptides (VL-linker-VH) fused to gene III protein.
The phage library was exposed to the radiation-inducible neoantigens P-selectin (also called CD62P; GENBANK™ Accession No. P98109) and/or platelet membrane glycoprotein IIB (also called CD41; GENBANK™ Accession No. P08514) immobilized on glass slides. Phage were selected based on antigen binding, and selected phage were pooled as a biased library. For representative in vitro screening methods, see Fowlkes et al., 1992; Haaparanta & Huse, 1995; Jung & Pluckthun, 1997; Peter et al., 2000; Holzem et al., 2001; Chiu et al., 2000.
Phage identified by in vitro screening were tested on Western immunoblots to confirm binding to the P-selection and platelet membrane glycoprotein IIB neoantigens. Phage that specifically bound P-selectin and platelet membrane glycoprotein IIB were subsequently used for in vivo screening of irradiated tumors as described in Example 5. Wild type phage were used as internal controls. Antibodies having substantial affinity for irradiated tumors were identified by observing an increased number of phage in the irradiated tumor when compared to a number of phage in a control organ (e.g., liver and lung). Phage antibodies with the greatest affinity for tumors were identified using the formula: number of phage in irradiated tumor/number of phage in each organ.

NXVG [conserved motif within recovered peptides]
Frequency of Recovery [1]: 46%

NSV (Artificial peptide ligand number 10) [conserved motif within recovered peptides]
Frequency of Recovery [1]: 22%

NSVRGSGSGV (Artificial peptide ligand number 3)
Phage Recovered from LLC tumors (Frequency) (LLC tumors): 28% | Number of Phage Recovered from LLC tumors (LLC tumors): 7 | Number of Phage Recovered from GL261 tumors (GL261 tumors): 0 | binding of phage encoding the peptide within tumor models [2]: bound within glioma and melanoma

GSSV (Artificial peptide ligand number 13)
Frequency of Recovery [1]: 56% | phage recovered from irradiated tumors ([1]; mouse, in vivo): 22-40 of 10^6 injected phage | share of peptide sequences recovered from 6 irradiated tumors having the subsequence ([1]; mouse, in vivo): 56%

NHVGGSSV (Artifical peptide ligand number 1)
Phage Recovered from LLC tumors (Frequency) (LLC tumors): 28% | Number of Phage Recovered from LLC tumors (LLC tumors): 7 | Phage Recovered from GL261 tumors (Frequency) (GL261 tumors): 48% | Number of Phage Recovered from GL261 tumors (GL261 tumors): 12 | binding of phage encoding the peptide within tumor models [2]: bound within the melanoma, lung carcinoma, and glioma tumor models

NSXRGXGS [conserved motif within recovered peptides]
Frequency of Recovery [1]: 32%

NSLRGDGSSV (phage-displayed; Artificial peptide ligand number 2)
Phage Recovered from LLC tumors (Frequency) (LLC tumors): 28% | Number of Phage Recovered from LLC tumors (LLC tumors): 7 | Phage Recovered from GL261 tumors (Frequency) (GL261 tumors): 8% | Number of Phage Recovered from GL261 tumors (GL261 tumors): 2 | binding of phage encoding the peptide within tumor models [2]: bound within the melanoma, lung carcinoma, and glioma tumor models

RGDGSSV (Artificial peptide ligand number 6)
share of peptide sequences recovered from 6 irradiated tumors having the subsequence ([1]; mouse, in vivo): 18%

NSXR [conserved motif within recovered peptides]
Frequency of Recovery [1]: 32%

GSXV [conserved motif within recovered peptides]
Frequency of Recovery [1]: 78%

NSVGSRV (Artificial peptide ligand number 4)
Phage Recovered from LLC tumors (Frequency) (LLC tumors): 4% | Number of Phage Recovered from LLC tumors (LLC tumors): 1 | Phage Recovered from GL261 tumors (Frequency) (GL261 tumors): 12% | Number of Phage Recovered from GL261 tumors (GL261 tumors): 3 | binding of phage encoding the peptide within tumor models [2]: bound within lung carcinoma and glioma

GSRV (Artificial peptide ligand number 7)
share of peptide sequences recovered from 6 irradiated tumors having the subsequence ([1]; mouse, in vivo): 4%

B1: SEQ ID NO: 18: scFv antibody encoded by SEQ ID NO: 17 (protein)
scFv: MAQVKLQQSGAELVMPGASVKMSCKASGYTFTDYWMHWVKQRPGQGLEWIGAIDTSDSYTSYNQKFKGKATLTVDESSSTAYMQLSSLTSEDSAVYYCARRGYYSAFDYWGQGTTVTVSSGGGGSGGGGSGGGGSDIELTQSPTTMAASPGEKVTITCRASSSVSYMHWFQQKSGTSPKPWIYDTSKLASGVPDRFSGSGSGTSYSLTISSMEAEDAATYYCLQRSSYPYTFGAGTKLEIKR
modifications: Artificial antibody ligand number 1
neoantigen recognition [3]: recognize the radiation-inducible neoantigens P-selectin and platelet membrane glycoprotein IIB

B2: SEQ ID NO: 22: scFv antibody encoded by SEQ ID NO: 21 (protein)
scFv: MAQVQLQESGPGLVKPSQSLSLTCSVTGYSITSNYWGWIRKFPGNKMEWMGYISYSGSTSYNPSLKSRISITRDTSKNQLFLQLNSVTTEDTATYYCARYSLFNYGRRDYVMDAWGQGTTVTVSSGGGGSGGGGSGGGGSDIELTQSPATMAASPGEKVTITCRASSTVSYMHWFQQKPGASPKPWIYDTSKLASGVPDRFSGSGSGTDFTLTIDPVQADDIATYYCQQSKDDPRTFGGGTKLELKRRPQVRRCRIRIRWNRVPH
modifications: Nucleic acid encoding scFv antibody 4A
neoantigen recognition [3]: recognize the radiation-inducible neoantigens P-selectin and platelet membrane glycoprotein IIB

B3: SEQ ID NO: 24: scFv antibody encoded by SEQ ID NO: 23 (protein)
scFv: MAQVKLQQSGPELVKPGASVKMSCKASGYTFTSYVMHWVKQSNGKSLEWIGTIDPYYGGTSYNQKFKGKATLTVDKSSTTAYIQLKSLTSEDSAVYYCARWDGYYGGFSYWGQGTMVTVSSGGGGSGGGGSGGGGSDIELTQSPAIMSATLGEKVTMSCRASSNVKYMYWYQQKSGASPKLWIYYTSNLASGVPARFSGSGSGTSYSLTISSVEAEDAATYYCQQFTSSPYTFGSGTKLEIKRAAAGAPVPYPDPLEPRAA
modifications: nucleic acid encoding scFv antibody 10A
neoantigen recognition [3]: recognize the radiation-inducible neoantigens P-selectin and platelet membrane glycoprotein IIB

B4: SEQ ID NO: 20: scFv antibody encoded by SEQ ID NO: 19 (protein)
scFv: MAQVKLQQSGPELVKPGASVKMSCKASGYTFTSYVMHWVKQKPGQGLEWIGYINPYNDGTKYNEKFKGKAALTSDKSSSTAYMELSSLTSEDSAVYYCARFGNYGALDYWGQGTTVTVSSGGGGSGGGGSGGGGSDIELTQSPTIMSASPGEKVTITCSASSSVSYMHWFQQKPGTSPKPWIYGTSNLASGVPVRFSGSGSGTSYSLTISSMEAEDAATYYCQQWSSYPLTFGGGTKLEIKR
modifications: Artificial antibody ligand number 2
neoantigen recognition [3]: recognize the radiation-inducible neoantigens P-selectin and platelet membrane glycoprotein IIB
